Measured values from publication PMC5920526 (ACS catalysis, 2017).

Tests used:
SpNanC [1] = assay: Substrate specificity of SpNanC with pNP-tagged α2–3-linked sialosides; type: biochemical, Streptococcus pneumoniae; settings: for Percentage conversion: sialoside as substrate of SpNanC; for yield of cleavage by SpNanC: reactions using 3 μg of SpNanC
SpNanC [2] = assay: Sialidase inhibition, Neu5Acα2–3GalβpNP as substrate; type: biochemical, Streptococcus pneumoniae; settings: 0.1 mM inhibitor
AuSialidase = AuSialidase (Paenarthrobacter ureafaciens, UniProt Q5W7Q2); assay: as above; type: biochemical, Arthrobacter ureafaciens; settings: for inhibitory activity against AuSialidase (in words): 0.1 mM inhibitor
BiNanH2 = BiNanH2 (Bifidobacterium longum subsp. infantis, UniProt A0ACD7UU12); assay: as above; type: biochemical; settings: for inhibitory activity against BiNanH2 (in words): 0.1 mM inhibitor
CpNanI = type: biochemical, Clostridium perfringens; settings: 0.1 mM inhibitor
CpNanH = CpNanH (Clostridium perfringens, UniProt P10481); type: biochemical
SpNanA = SpNanA (Streptococcus pneumoniae, UniProt P62575); assay: biochemical; settings: for IC50: read-out: IC50 against SpNanA, Neu5Acα2–3GalβpNP as substrate; for inhibitory activity against SpNanA (in words): 0.1 mM inhibitor
SpNanB = SpNanB (Streptococcus pneumoniae serotype 4, UniProt Q54727); assay: Sialidase inhibition, Neu5Acα2–3GalβpNP as substrate; type: biochemical; settings: 0.1 mM inhibitor
PmST1 = PmST1 (Pasteurella multocida, UniProt Q15KI8); type: biochemical; settings: 0.1 mM inhibitor
VcSialidase = VcSialidase (Vibrio cholerae serotype O1, UniProt P0C6E9); assay: biochemical
[3] = target: human cytosolic sialidase hNEU2 (Homo sapiens, UniProt Q9Y3R4); assay: Sialidase inhibition, Neu5Acα2–3GalβpNP as substrate; type: biochemical; settings: 0.1 mM inhibitor

## O=C(O)[C@@]1(O[C@H]2[C@@H](O)[C@@H](CO)O[C@@H](Oc3ccc([N+](=O)[O-])cc3)[C@@H]2O)C[C@H](O)[C@@H](F)[C@H]([C@H](O)[C@H](O)CO)O1 [Kdn5Fα2–3GalβpNP]
SpNanC [1]
  Percentage conversion: 0.48 ± 0.00%

## [N-]=[N+]=NC1C(O)CC(OC2C(O)C(CO)OC(Oc3ccc([N+](=O)[O-])cc3)C2O)(C(=O)O)OC1C(O)C(O)CO (stereo not drawn) [Kdn5N3α2–3GalβpNP]
SpNanC [1]
  Percentage conversion: 0.32 ± 0.45%

## CO[C@H]1[C@H]([C@H](O)[C@H](O)CO)O[C@](O[C@H]2[C@@H](O)[C@@H](CO)O[C@@H](Oc3ccc([N+](=O)[O-])cc3)[C@@H]2O)(C(=O)O)C[C@@H]1O [Kdn5OMeα2–3GalβpNP]
SpNanC [1]
  Percentage conversion: 1.53 ± 1.02%

## O=C(O)C1(OC2C(O)C(CO)OC(Oc3ccc([N+](=O)[O-])cc3)C2O)CC(O)CC(C(O)C(O)CO)O1 (centres unmarked) [Kdn5deoxyα2–3GalβpNP]
SpNanC [1]
  Percentage conversion: 5.31 ± 0.23%

## O=C(O)[C@]1(O[C@H]2[C@@H](O)[C@@H](CO)O[C@@H](Oc3ccc([N+](=O)[O-])cc3)[C@@H]2O)C[C@H](O)[C@@H](O)[C@H]([C@H](F)[C@H](O)CO)O1 [Kdn7Fα2–3GalβpNP]
SpNanC [1]
  Percentage conversion: 0.56 ± 0.11%

## [N-]=[N+]=NC(C(O)CO)C1OC(OC2C(O)C(CO)OC(Oc3ccc([N+](=O)[O-])cc3)C2O)(C(=O)O)CC(O)C1O (stereo not drawn) [Kdn7N3α2–3GalβpNP]
SpNanC [1]
  Percentage conversion: 4.50 ± 0.45%

## CO[C@@H]([C@@H]1O[C@](O[C@H]2[C@@H](O)[C@@H](CO)O[C@@H](Oc3ccc([N+](=O)[O-])cc3)[C@@H]2O)(C(=O)O)C[C@H](O)[C@H]1O)[C@H](O)CO [Kdn7OMeα2–3GalβpNP]
SpNanC [1]
  yield of cleavage by SpNanC: 23%
  Percentage conversion: 23.4 ± 3.3%

## O=C(O)C1(OC2C(O)C(CO)OC(Oc3ccc([N+](=O)[O-])cc3)C2O)CC(O)C(O)C(CC(O)CO)O1 (centres unmarked) [Kdn7deoxyα2–3GalβpNP]
SpNanC [1]
  yield of cleavage by SpNanC: 10%
  Percentage conversion: 10.1 ± 0.0%

## O=C(O)C1(OC2C(O)C(CO)OC(Oc3ccc([N+](=O)[O-])cc3)C2O)CC(O)C(O)C(C(O)C(O)CF)O1 (centres unmarked) [Kdn9Fα2–3GalβpNP]
SpNanC [1]
  Percentage conversion: 3.70 ± 1.14%

## COCC(O)C(O)C1OC(OC2C(O)C(CO)OC(Oc3ccc([N+](=O)[O-])cc3)C2O)(C(=O)O)CC(O)C1O (centres unmarked) [Kdn9OMeα2–3GalβpNP]
SpNanC [1]
  Percentage conversion: 4.02 ± 1.36%

## O=C(O)[C@]1(O[C@H]2[C@@H](O)[C@@H](CO)O[C@@H](Oc3ccc([N+](=O)[O-])cc3)[C@@H]2O)C[C@H](O)[C@@H](O)[C@H]([C@H](O)[C@H](O)CO)O1 [Kdnα2–3GalβpNP]
SpNanC [1]
  Percentage conversion: 4.50 ± 0.45%

## CC(=O)NC1C(O)CC(OC2C(O)C(CO)OC(Oc3ccc([N+](=O)[O-])cc3)C2O)(C(=O)O)OC1C(F)C(O)CO (centres unmarked) [Neu5Ac7Fα2–3GalβpNP]
SpNanC [1]
  Percentage conversion: 91.0 ± 4.3%

## CC(=O)NC1C(O)CC(OC2C(O)C(CO)OC(Oc3ccc([N+](=O)[O-])cc3)C2O)(C(=O)O)OC1C(N=[N+]=[N-])C(O)CO (stereo not drawn) [Neu5Ac7N3α2–3GalβpNP]
SpNanC [1]
  Percentage conversion: 65.9 ± 1.1%

## COC(C(O)CO)C1OC(OC2C(O)C(CO)OC(Oc3ccc([N+](=O)[O-])cc3)C2O)(C(=O)O)CC(O)C1NC(C)=O (centres unmarked) [Neu5Ac7OMeα2–3GalβpNP]
SpNanC [1]
  Percentage conversion: 96.5 ± 1.7%

## CC(=O)N[C@H]1[C@H](C[C@H](O)CO)O[C@@](O[C@H]2[C@@H](O)[C@@H](CO)O[C@@H](Oc3ccc([N+](=O)[O-])cc3)[C@@H]2O)(C(=O)O)C[C@@H]1O [Neu5Ac7deoxyα2–3GalβpNP]
SpNanC [1]
  Percentage conversion: 91.2 ± 1.8%

## CC(=O)N[C@H]1[C@H]([C@H](O)[C@H](O)CF)O[C@@](O[C@H]2[C@@H](O)[C@@H](CO)O[C@@H](Oc3ccc([N+](=O)[O-])cc3)[C@@H]2O)(C(=O)O)C[C@@H]1O [Neu5Ac9Fα2–3GalβpNP]
SpNanC [1]
  Percentage conversion: 75.6 ± 3.9%

## COCC(O)C(O)C1OC(OC2C(O)C(CO)OC(Oc3ccc([N+](=O)[O-])cc3)C2O)(C(=O)O)CC(O)C1NC(C)=O (centres unmarked) [Neu5Ac9OMeα2–3GalβpNP]
SpNanC [1]
  Percentage conversion: 88.5 ± 5.1%

## CC(=O)NC1C(O)CC(OC2C(O)C(CO)OC(Oc3ccc([N+](=O)[O-])cc3)C2O)(C(=O)O)OC1C(O)C(C)O (centres unmarked) [Neu5Ac9deoxyα2–3GalβpNP]
SpNanC [1]
  Percentage conversion: 93.5 ± 3.1%

## O=C(CF)NC1C(O)CC(OC2C(O)C(CO)OC(Oc3ccc([N+](=O)[O-])cc3)C2O)(C(=O)O)OC1C(O)C(O)CO (centres unmarked) [Neu5AcFα2–3GalβpNP]
SpNanC [1]
  Percentage conversion: 74.8 ± 3.2%

## [N-]=[N+]=NCC(=O)N[C@H]1[C@H]([C@H](O)[C@H](O)CO)O[C@@](O[C@H]2[C@@H](O)[C@@H](CO)O[C@@H](Oc3ccc([N+](=O)[O-])cc3)[C@@H]2O)(C(=O)O)C[C@@H]1O [Neu5AcN3α2–3GalβpNP]
SpNanC [1]
  Percentage conversion: 87.9 ± 1.6%

## COCC(=O)NC1C(O)CC(OC2C(O)C(CO)OC(Oc3ccc([N+](=O)[O-])cc3)C2O)(C(=O)O)OC1C(O)C(O)CO (centres unmarked) [Neu5AcOMeα2–3GalβpNP]
SpNanC [1]
  Percentage conversion: 81.8 ± 1.7%

## O=C(CO)NC1C(O)CC(OC2C(O)C(CO)OC(Oc3ccc([N+](=O)[O-])cc3)C2O)(C(=O)O)OC1C(O)C(O)CF (centres unmarked) [Neu5Gc9Fα2–3GalβpNP]
SpNanC [1]
  Percentage conversion: 72.3 ± 2.6%

## [N-]=[N+]=NCC(O)C(O)C1OC(OC2C(O)C(CO)OC(Oc3ccc([N+](=O)[O-])cc3)C2O)(C(=O)O)CC(O)C1NC(=O)CO (stereo not drawn) [Neu5Gc9N3α2–3GalβpNP]
SpNanC [1]
  Percentage conversion: 89.5 ± 3.5%

## COCC(O)C(O)C1OC(OC2C(O)C(CO)OC(Oc3ccc([N+](=O)[O-])cc3)C2O)(C(=O)O)CC(O)C1NC(=O)CO (centres unmarked) [Neu5Gc9OMeα2–3GalβpNP]
SpNanC [1]
  Percentage conversion: 75.0 ± 1.9%

## C[C@@H](O)[C@@H](O)[C@@H]1O[C@@](O[C@H]2[C@@H](O)[C@@H](CO)O[C@@H](Oc3ccc([N+](=O)[O-])cc3)[C@@H]2O)(C(=O)O)C[C@H](O)[C@H]1NC(=O)CO [Neu5Gc9deoxyα2–3GalβpNP]
SpNanC [1]
  Percentage conversion: 85.5 ± 1.4%

## O=C(CO)NC1C(O)CC(OC2C(O)C(CO)OC(Oc3ccc([N+](=O)[O-])cc3)C2O)(C(=O)O)OC1C(O)C(O)CO (centres unmarked) [Neu5Gcα2–3GalβpNP]
SpNanC [1]
  Percentage conversion: 80.6 ± 6.7%

## CC(=O)N[C@H]1[C@H]([C@H](O)[C@H](O)CO)OC(C(=O)O)=C[C@@H]1O [compound 6, 2,3-dehydro-2-deoxy-N-acetylneuraminic acid]
SpNanC [2]
  inhibitory activity against SpNanC (in words): not effective inhibitors
AuSialidase; read-out: inhibition against AuSialidase
  inhibition at 100 µM: > 50%
BiNanH2; read-out: inhibition against BiNanH2
  inhibition at 100 µM: > 50%
CpNanI
  inhibition against CpNanI: more than 50%
CpNanH
  inhibitory activity against CpNanH (in words): not effective inhibitors
SpNanA; read-out: inhibition against SpNanA
  inhibition at 100 µM: > 50%
SpNanB
  inhibitory activity against SpNanB (in words): not effective inhibitors
PmST1
  inhibitory activity against PmST1 (in words): not effective inhibitors
VcSialidase; read-out: inhibition against VcSialidase
  inhibition at 100 µM: > 50%

## O=C(CO)N[C@H]1[C@H]([C@H](O)[C@H](O)CO)OC(C(=O)O)=C[C@@H]1O [compound 7, 2,3-dehydro-2-deoxy-N-glycolylneuraminic acid]
SpNanC [2]
  inhibitory activity against SpNanC (in words): not effective inhibitors
[3]
  inhibition against hNEU2: more than 50%
CpNanH
  inhibitory activity against CpNanH (in words): not effective inhibitors
SpNanB
  inhibitory activity against SpNanB (in words): not effective inhibitors
PmST1
  inhibitory activity against PmST1 (in words): not effective inhibitors
VcSialidase
  inhibition against VcSialidase: more than 50%

## CC(=O)NC[C@@H](O)[C@@H](O)C1OC(C(=O)O)=CC(O)[C@H]1NC(C)=O (some centres unmarked) [compound 9, Neu5Ac9NAc2en]
SpNanC [2]
  inhibitory activity against SpNanC (in words): not effective inhibitors
AuSialidase
  inhibitory activity against AuSialidase (in words): lowered the inhibitory activity
BiNanH2; read-out: IC50 against BiNanH2, Neu5Acα2–3GalβpNP as substrate
  IC50: 33 ± 1 µM
[3]
  inhibitory activity against hNEU2 (in words): lowered the inhibitory activity
CpNanH
  inhibitory activity against CpNanH (in words): not effective inhibitors
SpNanA
  IC50: 11 ± 0.2 µM
SpNanB
  inhibitory activity against SpNanB (in words): not effective inhibitors
PmST1
  inhibitory activity against PmST1 (in words): not effective inhibitors
VcSialidase
  inhibitory activity against VcSialidase (in words): lowered the inhibitory activity

## CC(=O)N[C@@H]1C(O)C=C(C(=O)O)OC1C[C@H](O)CO (some centres unmarked) [compound 10, Neu5Ac7deoxy2en]
SpNanC [2]
  inhibitory activity against SpNanC (in words): not effective inhibitors
AuSialidase
  inhibitory activity against AuSialidase (in words): selective inhibitory activity
AuSialidase; read-out: IC50 against AuSialidase, Neu5Acα2–3GalβpNP as substrate
  IC50: 17 ± 1 µM
BiNanH2
  inhibitory activity against BiNanH2 (in words): not an effective inhibitor
[3]
  inhibitory activity against hNEU2 (in words): but not hNEU2
CpNanI
  inhibitory activity against CpNanI (in words): selective inhibitory activity
CpNanH
  inhibitory activity against CpNanH (in words): not effective inhibitors
SpNanA
  inhibitory activity against SpNanA (in words): selective inhibitory activity
  IC50: 10.7 ± 0.4 µM
SpNanB
  inhibitory activity against SpNanB (in words): not effective inhibitors
PmST1
  inhibitory activity against PmST1 (in words): not effective inhibitors
VcSialidase
  inhibitory activity against VcSialidase (in words): not an effective inhibitor

## O=C(Cc1ccccc1)N[C@H]1[C@H]([C@H](O)[C@H](O)CO)OC(C(=O)O)=C[C@@H]1O [compound 15, Neu5PhAc2en]
SpNanC [2]
  inhibitory activity against SpNanC (in words): not effective inhibitors
AuSialidase
  inhibitory activity against AuSialidase (in words): not any bacterial sialidases tested
BiNanH2
  inhibitory activity against BiNanH2 (in words): not any bacterial sialidases tested
[3]
  inhibitory activity against hNEU2 (in words): retained inhibitory activity
CpNanI
  inhibitory activity against CpNanI (in words): not any bacterial sialidases tested
CpNanH
  inhibitory activity against CpNanH (in words): not effective inhibitors
SpNanA
  inhibitory activity against SpNanA (in words): not any bacterial sialidases tested
SpNanB
  inhibitory activity against SpNanB (in words): not effective inhibitors
PmST1
  inhibitory activity against PmST1 (in words): not effective inhibitors
VcSialidase
  inhibitory activity against VcSialidase (in words): not any bacterial sialidases tested
